Values quoted from earlier work in patent US20200221696A1, “ACTIVE […] FORMULATION FOR I[…] AND OBTAINED PAINT” (priority 2018, published 2020).
Entries after “also recorded” stand apart in the source; their conditions may differ. Where two headings read alike, the source gives them in different places.

Conditions: aqueous medium; for Decomposition time (Mean life): stability in words: pH

Row | Compound | Decomposition time (Mean life): stability in words | Decomposition time (Mean life) (pH 9) | further results
1 | CC1(C)C(C=C(Cl)Cl)C1C(=O)OCc1cccc(Oc2ccccc2)c1 (centres unmarked) [Permethrin] | Stable at pH between 5 and 6. |  | 
2 | CCOP(=S)(OCC)Oc1cc(C)nc(C(C)C)n1 [Diazinon] |  | 136 days | Decomposition time (Mean life) (pH 5): 31 days; Decomposition time (Mean life) (pH 7.5): 185 days
3 | CCOP(=S)(OCC)Oc1nc(Cl)c(Cl)cc1Cl [Chlorpyrifos] | Stable in neutral and slightly acid |  | Decomposition time (Mean life) (pH 10): 7 days
4 | CC1(C)C(C=C(Cl)Cl)C1C(=O)OC(C#N)c1cccc(Oc2ccccc2)c1 (centres unmarked) [Cypermethrin] |  | 7 days | 
5 | O=C(NC(=O)c1c(F)cccc1F)Nc1ccc(Cl)cc1 [Diflubenzuron] | Stable in a pH range from 5 to 7; also recorded: Hydrolyzed at pH 9 |  | 
6 | CC1(C)[C@H](C(=O)O[C@H](C#N)c2cccc(Oc3ccccc3)c2)[C@@H]1C=C(Br)Br [Deltamethrin] | more stable in medium acid solutions |  | Decomposition time (Mean life) (pH 7): 0.33 days
7 | CCOC(=O)CC(SP(=S)(OC)OC)C(=O)OCC (centres unmarked) [Malathion] | Quickly hydrolyzed at pH over 7. The optimal pH |  | 
8 | CC(COc1ccc(Oc2ccccc2)cc1)Oc1ccccn1 (centres unmarked) [Pyriproxifen] | Stable in pH between 4 and 9. |  | 
9 | CCN(CC)c1nc(C)cc(OP(=S)(OC)OC)n1 [Pirimiphos-methyl] |  |  | Decomposition time (Mean life) (pH 5): 7 days; Decomposition time (Mean life) (pH 8): 5 days
10 | C=CCC1=C(C)C(OC(=O)C2C(C=C(C)C)C2(C)C)CC1=O [D-allethrin] | Stable at pH 5 after 31 days | (4.3 days) | Decomposition time (Mean life) (pH 7): 500 days
